This passage reports GI50 results from publication PMC12652692, “Synthesis and In Vitro Anticancer Evaluation of Novel Phosphonium Derivatives of Chrysin” (International Journal of Molecular Sciences, 2025).

SMILES strings stand for the structures.

The assay relates to 60 human cancer cell lines. In words: NCI60 five-dose screen, overall mean. Conditions: mean over all 60 cell lines. In kind it is cell-based. How it is done:
Since all new conjugates (3a–h) had notable antiproliferative activities on several tumor cell lines in the course of the one-dose screening, they were subjected to a five-dose test. […] J. Mol. Sci. 2025, 26, 11063 10 of 10 S.3. NCI60 Screening A detailed description of the NCI screening procedures can also be found on the website of NCI [39], and in our previous work. S.3.1. One-Dose Screen All candidates were examined at first at a single high dose (10 μM) in the full NCI60 cell panel. The value reported for the one-dose test is growth relative to the no-drug control and relative to the time zero number of cells. This made possible the disclosure of both growth inhibition (numbers between 0 and 100) and lethality (numbers less than 0). For example, a value of 100 means no growth inhibition. A value of 20 would mean 80% growth inhibition. A value of 0 means no net growth over the course of the analysis. A value of −20 would mean 20% lethality. A value of −100 means all cells are dead. S.3.2. […] The human tumor cell lines of the cancer screening panel were grown in RPMI 1640 medium containing 5% fetal bovine serum and 2 mM l-glutamine. Characteristically, cells were injected in 96-well microtiter plates in 0.1 mL at plating densities ranging from 5000 to 40,000 cells/well, depending on the doubling time of individual cell lines. After cell inoculation, the microtiter plates were incubated at 37 °C, 5% carbon dioxide, 95% air, and 100% relative humidity for 24 hours before the addition of tested compounds. After 24 hours, 2 plates of each cell line were fixed in situ with Cl3COOH (TCA), to represent a measurement of the cell population for each cell line at the time of drug addition (tz). Tested compounds were solubilized in DMSO at 400-fold the desired final maximum test concentration and stored frozen before application. In the course of the drug addition, an aliquot of frozen concentrate was thawed and diluted to twice the desired final maximum test concentration with a complete medium containing 50 μg mL−1 gentamicin. Additional four, 10-fold or ½ log serial dilutions were produced to furnish a total of five drug concentrations plus control. Aliquots of 0.1 mL of these different drug dilutions were added to the appropriate microtiter wells already containing 0.1 mL of medium, resulting in the required final drug concentrations. Following drug addition, the plates were incubated at 37 °C, 5% carbon dioxide, 95% air, and 100% relative humidity for an additional 48 hours. For adherent cells, the test was finished by the addition of cold Cl3COOH. Cells were fixed in situ by the addition of 50 μL of cold 50% (w/v) Cl3COOH, and incubated at 4 °C for 1 hour. The supernatant was discarded, and the plates were washed with H2O (5×) and dried in air. Sulforhodamine B (SRB) solution (0.1 mL) at 0.4% (w/v) in 1% CH3COOH was added to each well, and plates were incubated at RT for 10 min. After staining, the unbound dye was removed by washing five times with 1% CH3COOH, and the plates were dried in the air. The bound stain is afterward solubilized with a 10 mM trizma base, and the absorbance is read on an automated plate reader at λ = 515 nm. Utilizing the seven absorbance measurements [time zero (tz), control growth (c), and test growth in the presence of the drug at the five concentration levels (ti)], the percentage growth was determined at each of the drug concentration levels. Growth inhibition (%) was calculated as: [(ti − tz)/(c − tz)] × 100, for concentrations where ti ≥ tz (1) [(ti − tz)/(tz)] × 100, for concentrations where ti < tz. (2) Three dose‒response parameters were calculated as follows. GI50 (growth inhibition of 50%) was determined from Equation (3), which is the drug concentration resulting in a 50% reduction in the net protein increase (as measured by SRB staining) in control cells in the course of the drug incubation. [(ti − tz)/(c − tz)] × 100 = 50 (3)
`O=c1cc(-c2ccccc2)oc2cc(OCCCC[P+](c3ccccc3)(c3ccccc3)c3ccccc3)cc(O)c12` [3a] yielded a GI50 of 455 nM.
Turning to `Cc1ccc([P+](CCCCOc2cc(O)c3c(=O)cc(-c4ccccc4)oc3c2)(c2ccc(C)cc2)c2ccc(C)cc2)cc1` [3b], the GI50 was found to be 322 nM. The GI50 values of the last two molecules are within 1.5-fold of each other.
As to `COc1ccc([P+](CCCCOc2cc(O)c3c(=O)cc(-c4ccccc4)oc3c2)(c2ccc(OC)cc2)c2ccc(OC)cc2)cc1` [3c], the GI50 turned out to be 565 nM.
Molecule `O=c1cc(-c2ccccc2)oc2cc(OCCCC[P+](c3ccc(F)cc3)(c3ccc(F)cc3)c3ccc(F)cc3)cc(O)c12` [3d] displayed a concentration for 50% growth inhibition (GI50) of 2050 nM. This GI50 is about 3.6-fold higher than that of the molecule before.
On to `O=c1cc(-c2ccccc2)oc2cc(OCCCC[P+](C3CCCCC3)(C3CCCCC3)C3CCCCC3)cc(O)c12` [3e], for which the GI50 is 957 nM.
As for `COc1c(C)cc([P+](CCCCOc2cc(O)c3c(=O)cc(-c4ccccc4)oc3c2)(c2cc(C)c(OC)c(C)c2)c2cc(C)c(OC)c(C)c2)cc1C` [3f], the figure is 312 nM; as for `Cc1ccccc1[P+](CCCCOc1cc(O)c2c(=O)cc(-c3ccccc3)oc2c1)(c1ccccc1C)c1ccccc1C` [3g], 437 nM; as for `O=c1cc(-c2ccccc2)oc2cc(OCCCC[P+](c3ccccc3)(c3ccccc3)c3ccccn3)cc(O)c12` [3h], 949 nM.

In general, GI50 refers to the concentration that inhibits growth by half. A lower GI50 goes with greater sensitivity of the cells.
